Among the data in patent US4272630A, “D-Homosteroids” (priority 1979, dated 1981) are EC50 and ED40 values, retold here.

Structures are written as SMILES. Values after ≈ are worked out from the molar mass of the structure shown.

The subject of assay [1] is ear of male mice (oedema). Put plainly: Mouse Ear Test (oedema inhibition, topical, croton oil). In kind it is in vivo. To be noted: dissolved in croton oil, applied 15 seconds under 600 g to right ear of male mice (25-30 g), 4 hours, read-out: Mouse Ear EC50 (concentration which gave a 50% oedema inhibition in comparison with a control group). As for the experimental part:
(§1) The tests carried out can be described as follows:
The D-homosteroids, dissolved in croton oil, were applied for 15 seconds under a pressure of 600 g to the right ear of male mice weighing 25-30 g. The left ear served as the control. Four hours later, the mice were killed, and tissue was removed with a punch from the same position on treated and untreated ears and weighed. The EC50, namely that concentration which gave a 50% oedema inhibition in comparison with a control group, was determined.

Assay [2] deals with granulomas in female rats. Put plainly: Felt Pellet Test (granuloma reduction, oral). To be noted: Rattus norvegicus, four successive days, female rats (90-110 g), removed on 5th day, read-out: Felt Pellet ED40 (dosage which gave a 40% reduction of the granulation weight). It counts as in vivo. As for the experimental part:
as §1
Two felt pellets were implanted under the skin (scapula region) in female rats (90-110 g) under ether narcosis. The D-homosteroids were administered orally on four successive days commencing on the day of the implantation. On the 5th day, the rats were killed, and the granulomas which formed were removed, dried and weighed. The ED40, namely that dosage which gave a 40% reduction of the granulation weight, was determined.

As to `COC(=O)C1(OC(C)=O)C=CCC2C3CCC4=CC(=O)C=CC4(C)C3C(O)CC21C` [17aα-acetoxy-11β-hydroxy-3-oxo-D-homoandrosta-1,4,16-triene-17aβ-carboxylic acid methyl ester], the EC50 in assay [1] is 30 µg/mL (≈ 72.4 µM). For the same compound, the ED40 in assay [2] is 6.4 mg/kg.

As for `COC(=O)C1(OC(C)=O)C=CCC2C3CCC4=CC(=O)C=CC4(C)C3(F)C(O)CC21C` [17-acetoxy-9-fluoro-11β-hydroxy-3-oxo-D-homoandrosta-1,4,16-triene-17aβ-carboxylic acid methyl ester], the EC50 in assay [1] came out at 10 µg/mL (≈ 23.1 µM). Besides, the ED40 in assay [2] came to 6 mg/kg.
